Laboratory results taken from patent US20110230472A1, “RING-FUSED AZOLE DERIVATIVE HAVING PI3K-INHIBITING ACTIVITY” (Shionogi & Co., Ltd., priority 2008, published 2011).

Columns and labels:
Solubility test = assay type: physicochemical; settings: kinetic from dmso stock; artificial intestinal juice pH 6.8, 1% DMSO, 25° C. for 16 hours
Procedure: The solubility of a compound was determined under a condition in which 1% DMSO was added. 10 mmol/L compound solution was prepared using DMSO, and then 6 μL of the compound solution was added to 594 μL of artificial intestinal juice in pH 6.8 (to 250 mL of 0.2 mol/L potassium dihydrogen phosphate reagent solution was added 118 mL of 0.2 mol/L NaOH reagent solution and water to provide a final volume of 1000 mL). After standing at 25° C. for 16 hours, the mixed solution was filtered with suction. The filtrate was diluted twice with methanol/water (1/1), and then a concentration in the filtration was measured with HPLC or LC/MS/MS by the absolute calibration method.

[1] = test system: AKT phosphorylation in human monocyte-like cell line THP-1; assay: AKT phosphorylation inhibitory activity in MCP-1-stimulated THP-1 cells (ELISA); assay type: cell-based; settings: 1 μmol/L solution of each compound, MCP-1 stimulation, read-out: AKT phosphorylation inhibition ratio
Procedure: (1) The AKT phosphorylation inhibitory activity of a compound was evaluated according to the following procedure. (2) Human monocyte-like cell line THP-1 was washed with RPMI-1640 media, incubated in the presence of 5% CO2 at 37° C. for 3 hours, washed with Hank's balanced salt solution (HBSS), adjusted to a cell concentration of 6.6×10^6/mL, and then used in an experiment. (3) 30 μL of the cell suspension and 60 μL of each compound solution containing 0.2% DMSO/HBSS were mixed and then preincubated at 37° C. for 5 minutes. 30 μL of HBSS containing 4 μg/mL of MCP-1 was added thereto and then incubated for 30 seconds at 37° C. (4) 30 μl of a cell lysate (20 mmol/L Tris-HCl (pH 7.5), 150 mmol/L NaCl, 1 mmol/L Na2EDTA, 1 mmol/L EGTA, 1% Triton, 2.5 mmol/L sodium pyrophosphate, 1 mmol/L β-glycerophosphate, 1 mmol/L Na3VO4, 1 μg/ml leupeptin, 50 nmol/L APMSF) was added thereto to lyse cells. (5) The amount of AKT phosphorylation in the cell lysate was measured by ELISA method. (6) Anti-phospho-Akt (Ser473) antibodies (clone 193H12, derived from a rabbit) were immobilized onto the solid phase of a micro well plate. 100 μL of the prepared cell lysate was added to the micro well plate, incubated for 2 hours at 37° C., and then washed four times with Phosphate Buffered Saline containing 0.05% Tween-20. (7) An anti-AKT1 antibody (clone 2H10, derived from a mouse) was added thereto, incubated for 1 hour at 37° C., washed similarly, and then reacted with an HRP-labeled anti-mouse IgG antibody. (8) After incubating at 37° C. for 30 minutes and then washing similarly, 100 μL of TMB (3,3′,5,5″-tetramethylbenzidine) was added thereto, followed by reacting at room temperature for 30 minutes. (9) 100 μL of 1 mol/L sulfuric acid was added to quench the color reaction and then the absorbance at 450 nm was measured. (10) A series of diluted cell lysates of a positive control (a sample in the absence of a compound) were used to prepare a calibration curve, the amount of AKT phosphorylation in a sample in the absence of MCP-1 was defined as 0% activity to calculate an inhibition ratio. The measurement was performed for a 1 μmol/L solution of each compound.

PI-3 kinase γ = PI-3 kinase γ (Homo sapiens, UniProt P48736); assay: PI3Kγ inhibitory activity, PI3-kinase HTRF assay (inhibition ratio); assay type: biochemical; settings: 0.5 h; for inhibition at 50 µM: compound at 50 μM
Sequence of PI-3 kinase γ (P48736 whole entry): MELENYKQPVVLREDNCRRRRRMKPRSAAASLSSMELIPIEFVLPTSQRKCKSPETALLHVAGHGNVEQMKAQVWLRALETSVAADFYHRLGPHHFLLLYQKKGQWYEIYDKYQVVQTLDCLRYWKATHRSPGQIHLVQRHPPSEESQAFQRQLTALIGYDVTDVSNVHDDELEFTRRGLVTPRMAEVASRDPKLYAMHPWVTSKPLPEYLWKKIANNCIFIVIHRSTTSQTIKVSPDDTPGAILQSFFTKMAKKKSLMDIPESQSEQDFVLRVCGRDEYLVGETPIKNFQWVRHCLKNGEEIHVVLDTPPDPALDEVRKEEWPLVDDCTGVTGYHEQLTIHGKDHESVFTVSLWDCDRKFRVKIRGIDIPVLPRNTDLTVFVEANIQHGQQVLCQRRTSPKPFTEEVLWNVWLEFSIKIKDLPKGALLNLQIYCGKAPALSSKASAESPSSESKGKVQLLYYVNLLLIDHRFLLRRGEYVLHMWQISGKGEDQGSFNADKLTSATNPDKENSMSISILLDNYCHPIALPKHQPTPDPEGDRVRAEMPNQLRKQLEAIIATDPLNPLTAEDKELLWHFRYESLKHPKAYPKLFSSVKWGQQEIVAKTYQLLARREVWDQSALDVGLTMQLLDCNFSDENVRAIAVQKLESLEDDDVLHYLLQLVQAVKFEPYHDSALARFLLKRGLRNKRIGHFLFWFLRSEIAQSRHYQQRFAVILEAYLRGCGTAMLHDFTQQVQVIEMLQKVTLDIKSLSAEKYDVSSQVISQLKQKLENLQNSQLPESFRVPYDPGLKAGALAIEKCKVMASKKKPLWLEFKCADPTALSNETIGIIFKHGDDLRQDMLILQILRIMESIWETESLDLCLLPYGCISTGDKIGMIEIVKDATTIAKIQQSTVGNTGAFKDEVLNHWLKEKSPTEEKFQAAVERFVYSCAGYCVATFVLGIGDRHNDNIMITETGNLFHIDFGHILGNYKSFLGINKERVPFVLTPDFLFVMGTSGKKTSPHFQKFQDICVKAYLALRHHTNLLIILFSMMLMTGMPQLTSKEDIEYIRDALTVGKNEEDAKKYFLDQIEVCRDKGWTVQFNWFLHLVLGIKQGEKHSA
Summary of the method: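 Single-concentration inhibition ratio (50 or 10 μmol/L compound) versus no-compound (100%) and no-enzyme (0%) wells. Reaction: PI-3 kinase γ, PIP2, ATP, MgCl2/DTT, 30 min at RT after 10 min preincubation. Read-out: HTRF 665/620 nm after 18 h detection.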

Metabolic stability test = assay type: in vitro ADME; settings: human liver microsome 0.5 mg protein/mL, 1 mmol/L NADPH, 37° C.
Procedure: After a subject compound was reacted for a certain time using a pooled human liver microsome commercially available, a reacted sample and an unreacted sample are compared to calculate a survival ratio, and then the degree of metabolism in the liver was evaluated.
0.2 mL of a buffer solution (50 mmol/L of Tris-HCl in pH 7.4, 150 mmol/L of potassium chloride, and 10 mmol/L of magnesium chloride) containing a human liver microsome of 0.5 mg protein/mL was reacted in the presence of 1 mmol/L NADPH at 37° C. for 0 or 30 minutes (oxidative reaction). After reacting, 50 μL of the reaction solution was added to 100 μL of a solution of methanol/acetonitrile (1/1 (v/v)), mixed, and then centrifuged at 3000 rpm for 15 minutes. The test compound in the supernatant was quantitated with LC/MS/MS. The amount of the compound at a reaction time of 0 minute was defined as 100% and, based on that, the percentage of the test compound remained after reacting for 30 minutes was calculated.

CYP3A4 = biological target: T1, CYP3A4 (Homo sapiens, UniProt P08684); assay: CYP inhibition test, pooled human liver microsome, CYP3A4; assay type: in vitro ADME; settings: hydroxylation of terfenadine
T1 construct: enzyme: pooled human liver microsome 0.2 mg protein/mL; from tissue; host or cells: pooled human liver microsome
T1 sequence (P08684 whole entry): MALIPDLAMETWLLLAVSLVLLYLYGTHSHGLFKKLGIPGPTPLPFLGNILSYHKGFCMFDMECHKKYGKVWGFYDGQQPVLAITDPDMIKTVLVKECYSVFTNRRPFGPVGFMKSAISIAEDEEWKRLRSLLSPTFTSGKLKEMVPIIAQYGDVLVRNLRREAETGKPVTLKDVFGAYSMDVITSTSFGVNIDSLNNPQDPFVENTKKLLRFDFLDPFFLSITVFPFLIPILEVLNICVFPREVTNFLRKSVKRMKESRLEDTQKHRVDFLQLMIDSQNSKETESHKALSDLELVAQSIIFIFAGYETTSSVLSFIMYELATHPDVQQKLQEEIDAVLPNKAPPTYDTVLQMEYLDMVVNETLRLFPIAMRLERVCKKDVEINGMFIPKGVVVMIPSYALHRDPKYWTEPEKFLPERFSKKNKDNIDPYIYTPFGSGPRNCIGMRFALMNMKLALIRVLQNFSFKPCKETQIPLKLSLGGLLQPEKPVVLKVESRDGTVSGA
From the text: (§1) O-de-ethylation of 7-ethoxyresorufin (CYP1A2), methyl-hydroxylation of tolbutamide (CYP2C9), 4′-hydroxylation of mephenyloin (CYP2C19), O-demethylation of dextromethorphan (CYP2D6), and hydroxylation of terfenadine (CYP3A4), which are typical substrate for metabolic reactions of human main CYP5 molecular species (CYP1A2, 2C9, 2C19, 2D6, and 3A4), were adopted as indexes.
(§2) The reaction conditions are as follows: substrate: 0.5 μmol/L of ethoxyresorufin (CYP1A2), 100 μmol/L of tolbutamide (CYP2C9), […] of S-mephenyloin (CYP2C19), 5 μmol/L of dextromethorphan (CYP2D6), and 1 μmol/L of terfenadine (CYP3A4); reaction time; 15 minutes; reaction temperature: 37° C.; enzyme: pooled human liver microsome 0.2 mg protein/mL; test drug concentration: 1, 5, 10, and 20 μmol/L (4 points).
(§3) In a 96-well plate, as a reaction solution, five kinds of substrates, a human liver microsome, and a test drug were added to 50 mmol/L Hepes buffer solution in the aforementioned ratio. A coenzyme NADPH was added to start a metabolic reaction, which is an index. After reacting at 37° C. for 15 minutes, a solution of methanol/acetonitrile (1/1 (v/v)) was added to quench the reaction. After centrifugation at 3000 rpm for 15 minutes, resorufin (CYP1A2 metabolite) in the supernatant was quantitated with a fluorescence multilabel counter, and hydroxylated tolbutamide (CYP2C9 metabolite), 4′-hydroxylated mephenyloin (CYP2C19 metabolite), […], terfenadine in alcohol form (CYP3A4 metabolite) were quantitated with LC/MS/MS.
(§4) The case wherein only DMSO (a solvent which dissolved a drug) was added to a reaction system was defined as a control (100%). When a test drug solution was added, the remaining activity (%) at each concentration was calculated, and then IC50 was calculated with a concentration and an inhibition ratio by an inverse estimation using a logistic model.

CYP1A2 = biological target: T2, CYP1A2 (Homo sapiens, UniProt P05177); assay: CYP inhibition test, pooled human liver microsome, CYP1A2; assay type: in vitro ADME; settings: O-de-ethylation of 7-ethoxyresorufin
T2 construct: enzyme: pooled human liver microsome 0.2 mg protein/mL; from tissue; host or cells: pooled human liver microsome
T2 sequence (P05177 1-516): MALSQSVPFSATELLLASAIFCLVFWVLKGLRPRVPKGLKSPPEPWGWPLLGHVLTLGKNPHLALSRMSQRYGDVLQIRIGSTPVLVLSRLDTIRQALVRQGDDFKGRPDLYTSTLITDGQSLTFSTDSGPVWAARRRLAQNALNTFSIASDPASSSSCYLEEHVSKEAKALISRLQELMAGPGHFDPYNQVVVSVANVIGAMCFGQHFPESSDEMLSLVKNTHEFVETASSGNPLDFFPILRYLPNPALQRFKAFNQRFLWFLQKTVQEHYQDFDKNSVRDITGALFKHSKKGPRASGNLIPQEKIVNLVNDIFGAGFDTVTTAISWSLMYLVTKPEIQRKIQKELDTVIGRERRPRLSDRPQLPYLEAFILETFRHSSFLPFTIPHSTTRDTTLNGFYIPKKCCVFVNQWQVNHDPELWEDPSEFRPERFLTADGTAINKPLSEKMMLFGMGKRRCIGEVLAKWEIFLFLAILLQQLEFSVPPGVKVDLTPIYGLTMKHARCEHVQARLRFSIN
From the text: as §1, §2, §3, §4

CYP2C9 = biological target: T3, CYP2C9 (Homo sapiens, UniProt P11712); assay: CYP inhibition test, pooled human liver microsome, CYP2C9; assay type: in vitro ADME; settings: methyl-hydroxylation of tolbutamide
T3 construct: enzyme: pooled human liver microsome 0.2 mg protein/mL; from tissue; host or cells: pooled human liver microsome
T3 sequence (P11712 whole entry): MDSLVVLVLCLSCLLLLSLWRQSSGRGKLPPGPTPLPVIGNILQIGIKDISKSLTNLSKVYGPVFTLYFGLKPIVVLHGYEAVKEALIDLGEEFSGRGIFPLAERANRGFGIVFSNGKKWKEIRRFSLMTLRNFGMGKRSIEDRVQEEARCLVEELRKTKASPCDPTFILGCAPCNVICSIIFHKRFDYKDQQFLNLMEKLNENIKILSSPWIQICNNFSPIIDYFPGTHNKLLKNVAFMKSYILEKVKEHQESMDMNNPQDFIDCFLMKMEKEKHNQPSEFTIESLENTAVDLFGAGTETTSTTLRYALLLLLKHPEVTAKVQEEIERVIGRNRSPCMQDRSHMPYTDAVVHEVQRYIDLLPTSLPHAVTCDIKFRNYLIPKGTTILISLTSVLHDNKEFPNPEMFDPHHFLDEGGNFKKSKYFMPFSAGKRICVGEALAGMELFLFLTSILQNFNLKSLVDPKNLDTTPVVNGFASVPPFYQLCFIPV
From the text: as §1, §2, §3, §4

CYP2C19 = biological target: T4, CYP2C19 (Homo sapiens, UniProt P33261); assay: CYP inhibition test, pooled human liver microsome, CYP2C19; assay type: in vitro ADME; settings: 4′-hydroxylation of mephenyloin
T4 construct: enzyme: pooled human liver microsome 0.2 mg protein/mL; from tissue; host or cells: pooled human liver microsome
T4 sequence (P33261 whole entry): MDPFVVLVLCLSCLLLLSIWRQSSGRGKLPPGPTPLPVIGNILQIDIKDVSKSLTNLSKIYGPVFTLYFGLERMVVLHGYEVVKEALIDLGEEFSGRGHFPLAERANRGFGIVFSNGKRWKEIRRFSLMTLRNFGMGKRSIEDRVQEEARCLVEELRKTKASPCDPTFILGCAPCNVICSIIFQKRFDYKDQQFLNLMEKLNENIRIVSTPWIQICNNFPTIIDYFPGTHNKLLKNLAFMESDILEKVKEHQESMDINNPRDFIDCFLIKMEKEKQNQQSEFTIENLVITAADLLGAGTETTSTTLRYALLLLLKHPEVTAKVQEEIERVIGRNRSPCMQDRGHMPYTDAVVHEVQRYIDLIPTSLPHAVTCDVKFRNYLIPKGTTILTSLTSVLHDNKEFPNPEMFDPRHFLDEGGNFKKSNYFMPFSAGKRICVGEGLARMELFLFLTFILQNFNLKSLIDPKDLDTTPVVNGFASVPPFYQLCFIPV
From the text: as §1, §2, §3, §4

CYP2D6 = biological target: T5, CYP2D6 (Homo sapiens, UniProt P10635); assay: CYP inhibition test, pooled human liver microsome, CYP2D6; assay type: in vitro ADME; settings: O-demethylation of dextromethorphan
T5 construct: enzyme: pooled human liver microsome 0.2 mg protein/mL; from tissue; host or cells: pooled human liver microsome
T5 sequence (P10635 whole entry): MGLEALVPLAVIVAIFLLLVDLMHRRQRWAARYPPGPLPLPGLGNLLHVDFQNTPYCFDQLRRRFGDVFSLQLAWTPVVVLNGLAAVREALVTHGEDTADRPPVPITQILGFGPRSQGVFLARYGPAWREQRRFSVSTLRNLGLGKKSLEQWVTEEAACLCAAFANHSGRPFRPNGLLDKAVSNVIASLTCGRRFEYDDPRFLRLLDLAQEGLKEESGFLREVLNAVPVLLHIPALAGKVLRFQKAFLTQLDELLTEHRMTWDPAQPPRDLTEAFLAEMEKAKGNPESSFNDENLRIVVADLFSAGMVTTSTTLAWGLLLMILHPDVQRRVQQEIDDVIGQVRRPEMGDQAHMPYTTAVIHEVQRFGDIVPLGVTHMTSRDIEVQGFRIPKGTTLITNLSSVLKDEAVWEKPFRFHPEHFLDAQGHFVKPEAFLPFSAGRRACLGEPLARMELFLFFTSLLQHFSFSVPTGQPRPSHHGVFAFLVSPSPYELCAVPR
From the text: as §1, §2, §3, §4
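For percentage of the test compound remained after reacting for 30 minutes in this document: 100% equals the compound amount at 0 min reaction.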

SMILES | solubility at 16 h (Solubility test) | inhibition [1] | inhibition at 50 µM (PI-3 kinase γ; PI3Kγ) | percentage of the test compound remained after reacting for 30 minutes (Metabolic stability test) | inhibition at 10 µM (PI-3 kinase γ; PI3Kγ, compound at 10 μM) | inhibition at 10 µM (PI-3 kinase γ; compound at 10 μmol/L) | IC50 (CYP3A4) | IC50 (CYP1A2) | IC50 (CYP2C9) | IC50 (CYP2C19) | IC50 (CYP2D6)
CNC(=O)Nc1cc2n(n1)CCN2c1ccc2ncccc2c1 [Compound I-177] | > 50 µM | > 99.5% | ≥ 95% |  |  |  |  |  |  |  | 
CNC(=O)Nc1cc2n(n1)CCN2c1ccc2cnccc2c1 [Compound I-190] |  | > 99.5% | ≥ 95% | 90.5% |  |  |  |  |  |  | 
CC(=O)Nc1cc2n(n1)CCN2c1cccc(Cl)c1 [Compound I-198] | > 50 µM | 97.3% | 94% |  |  |  |  |  |  |  | 
COc1cc(N2CCc3nc(NC(C)=O)sc3C2)nc(OC)n1 [Compound I-214] |  | > 99.5% | ≥ 95% | 98.9% |  |  |  |  |  |  | 
CC(=O)Nc1cc2n(n1)CCN2c1ccc2c(c1)CCN(C)C2=O [Compound I-287] | > 50 µM | > 99.5% |  | 94.9% | ≥ 95% |  |  |  |  |  | 
COc1cc(N2CCc3nc(NC(=O)NCCC(=O)N4CCCC4)sc3C2)nc(OC)n1 [Compound I-308] |  | 98.4% |  | 92.2% |  | ≥ 95% |  |  |  |  | 
COc1cc(N2CCc3nc(NC(=O)NCCC(=O)NC(C)C)sc3C2)nc(OC)n1 [Compound I-309] | > 50 µM | 92% |  | 93.1% |  | ≥ 95% |  |  |  |  | 
COc1nc(OC)nc(N2CCc3nc(NC(C)=O)sc3C2)n1 [Compound I-330] | > 50 µM |  |  | 99% |  | 83% | > 20 µM | > 20 µM | > 20 µM | > 20 µM | > 20 µM
CN1CCc2cc(N3CCn4nc(NC(=O)c5cccs5)cc43)ccc2C1=O [Compound I-331] |  | 93% |  |  |  | 84% |  |  |  |  | 
CN1CCc2cc(N3CCn4nc(NC(=O)c5ccsc5)cc43)ccc2C1=O [Compound I-332] |  | 96% |  | 87.2% |  | ≥ 95% |  |  |  |  | 
CC(=O)Nc1cc2n(n1)CCN2c1ccc2c(c1)CCC(=O)N2C [Compound I-340] | > 50 µM |  |  | 98.3% |  | ≥ 95% | > 20 µM | > 20 µM | > 20 µM | > 20 µM | > 20 µM
CN1CCc2cc(N3CCn4nc(NC(=O)c5cncs5)cc43)ccc2C1=O [Compound I-341] | > 50 µM | 97.8% |  |  |  | ≥ 95% |  |  |  |  | 
CNC(=O)Nc1nc2c(s1)CN(c1cncc(OC)n1)CC2 [Compound I-378] | > 50 µM | > 99.5% |  |  |  | ≥ 95% |  |  |  |  | 
CN1CCc2cc(N3CCn4nc(NC(=O)c5cc(O)no5)cc43)ccc2C1=O [Compound I-397] | > 50 µM |  |  | 96.7% |  | ≥ 95% | > 20 µM | > 20 µM | > 20 µM | > 20 µM | > 20 µM
